Laboratory results from US20250255867A1 (Kadmon Corporation, LLC, priority 2022, published 2025).

Conditions: Cohort 3 400 mg QD
Experimental: All responses were assessed by the investigators.
Reported Adverse Events. […] All-cause mortality data collected during the study were assessed for all enrolled participants. Disease progression related death was not reported as AE.
Number of Participants With Treatment-emergent Adverse Events (TEAEs), and Treatment-emergent Serious Adverse Events (TESAEs). […] TEAEs included both SAEs and non-SAEs. […] Analysis was performed on safety population which included all participants who received at least 1 dose of study medication.

CC(C)NC(=O)COc1cccc(-c2nc(Nc3ccc4[nH]ncc4c3)c3ccccc3n2)c1 [Belumosudil, 2-{3-[4-(1H-indazol-5-ylamino)-2-quinazolinyl]phenoxy}-N-(propan-2-yl) acetamide]
Blood loss anaemia: # Events: 0
Blood loss anaemia: Affected/At Risk: 0/21
Blood loss anaemia: Affected/At Risk (%): (0%)
Bronchial secretion retention: # Events: 0
Bronchial secretion retention: Affected/At Risk: 0/21
Bronchial secretion retention: Affected/At Risk (%): (0%)
Bronchitis: # Events: 1
Bronchitis: Affected/At Risk: 1/21
Bronchitis: Affected/At Risk (%): (4.76%)
Bronchoscopy: # Events: 0
Bronchoscopy: Affected/At Risk: 0/21
Bronchoscopy: Affected/At Risk (%): (0%)
Catheter site haemorrhage: # Events: 0
Catheter site haemorrhage: Affected/At Risk: 0/21
Catheter site haemorrhage: Affected/At Risk (%): (0%)
Chills: # Events: 0
Chills: Affected/At Risk: 0/21
Chills: Affected/At Risk (%): (0%)
Chronic kidney disease: # Events: 0
Chronic kidney disease: Affected/At Risk: 0/21
Chronic kidney disease: Affected/At Risk (%): (0%)
Conjunctival haemorrhage: # Events: 1
Conjunctival haemorrhage: Affected/At Risk: 1/21
Conjunctival haemorrhage: Affected/At Risk (%): (4.76%)
Conjunctivitis: # Events: 3
Conjunctivitis: Affected/At Risk: 3/21
Conjunctivitis: Affected/At Risk (%): (14.29%)
Constipation: # Events: 4
Constipation: Affected/At Risk: 3/21
Constipation: Affected/At Risk (%): (14.29%)
Contrast media allergy: # Events: 0
Contrast media allergy: Affected/At Risk: 0/21
Contrast media allergy: Affected/At Risk (%): (0%)
Contusion: # Events: 4
Contusion: Affected/At Risk: 3/21
Contusion: Affected/At Risk (%): (14.29%)
Corneal abrasion: # Events: 0
Corneal abrasion: Affected/At Risk: 0/21
Corneal abrasion: Affected/At Risk (%): (0%)
Corneal infection: # Events: 0
Corneal infection: Affected/At Risk: 0/21
Corneal infection: Affected/At Risk (%): (0%)
Cough: # Events: 9
Cough: Affected/At Risk: 7/21
Cough: Affected/At Risk (%): (33.33%)
Decreased appetite: # Events: 4
Decreased appetite: Affected/At Risk: 4/21
Decreased appetite: Affected/At Risk (%): (19.05%)
Dehydration: # Events: 2
Dehydration: Affected/At Risk: 2/21
Dehydration: Affected/At Risk (%): (9.52%)
Depression: # Events: 3
Depression: Affected/At Risk: 3/21
Depression: Affected/At Risk (%): (14.29%)
Diarrhoea: # Events: 11
Diarrhoea: Affected/At Risk: 7/21
Diarrhoea: Affected/At Risk (%): (33.33%)
Dizziness: # Events: 2
Dizziness: Affected/At Risk: 2/21
Dizziness: Affected/At Risk (%): (9.52%)
Drug eruption: # Events: 0
Drug eruption: Affected/At Risk: 0/21
Drug eruption: Affected/At Risk (%): (0%)
Dry eye: # Events: 2
Dry eye: Affected/At Risk: 2/21
Dry eye: Affected/At Risk (%): (9.52%)
Dry skin: # Events: 1
Dry skin: Affected/At Risk: 1/21
Dry skin: Affected/At Risk (%): (4.76%)
Dyspepsia: # Events: 1
Dyspepsia: Affected/At Risk: 1/21
Dyspepsia: Affected/At Risk (%): (4.76%)
Dysphagia: # Events: 3
Dysphagia: Affected/At Risk: 2/21
Dysphagia: Affected/At Risk (%): (9.52%)
Dyspnoea exertional: # Events: 0
Dyspnoea exertional: Affected/At Risk: 0/21
Dyspnoea exertional: Affected/At Risk (%): (0%)
Dyspnoea: # Events: 6
Dyspnoea: Affected/At Risk: 6/21
Dyspnoea: Affected/At Risk (%): (28.57%)
Embolism: # Events: 1
Embolism: Affected/At Risk: 1/21
Embolism: Affected/At Risk (%): (4.76%)
Enamel anomaly: # Events: 0
Enamel anomaly: Affected/At Risk: 0/21
Enamel anomaly: Affected/At Risk (%): (0%)
Epidural lipomatosis: # Events: 0
Epidural lipomatosis: Affected/At Risk: 0/21
Epidural lipomatosis: Affected/At Risk (%): (0%)
Epstein-Barr virus infection: # Events: 0
Epstein-Barr virus infection: Affected/At Risk: 0/21
Epstein-Barr virus infection: Affected/At Risk (%): (0%)
Erectile dysfunction: # Events: 0
Erectile dysfunction: Affected/At Risk: 0/21
Erectile dysfunction: Affected/At Risk (%): (0%)
Eye irritation: # Events: 0
Eye irritation: Affected/At Risk: 0/21
Eye irritation: Affected/At Risk (%): (0%)
Eye pain: # Events: 0
Eye pain: Affected/At Risk: 0/21
Eye pain: Affected/At Risk (%): (0%)
Eye pruritus: # Events: 0
Eye pruritus: Affected/At Risk: 0/21
Eye pruritus: Affected/At Risk (%): (0%)
Fall: # Events: 1
Fall: Affected/At Risk: 1/21
Fall: Affected/At Risk (%): (4.76%)
Fatigue: # Events: 14
Fatigue: Affected/At Risk: 10/21
Fatigue: Affected/At Risk (%): (47.62%)
Flatulence: # Events: 1
Flatulence: Affected/At Risk: 1/21
Flatulence: Affected/At Risk (%): (4.76%)
Flushing: # Events: 0
Flushing: Affected/At Risk: 0/21
Flushing: Affected/At Risk (%): (0%)
Fungal infection: # Events: 0
Fungal infection: Affected/At Risk: 0/21
Fungal infection: Affected/At Risk (%): (0%)
Gamma-glutamyltransferase increased: # Events: 0
Gamma-glutamyltransferase increased: Affected/At Risk: 0/21
Gamma-glutamyltransferase increased: Affected/At Risk (%): (0%)
Gastric ulcer: # Events: 0
Gastric ulcer: Affected/At Risk: 0/21
Gastric ulcer: Affected/At Risk (%): (0%)
Gastrooesophageal reflux disease: # Events: 2
Gastrooesophageal reflux disease: Affected/At Risk: 2/21
Gastrooesophageal reflux disease: Affected/At Risk (%): (9.52%)
Generalised oedema: # Events: 1
Generalised oedema: Affected/At Risk: 1/21
Generalised oedema: Affected/At Risk (%): (4.76%)
Genital infection fungal: # Events: 0
Genital infection fungal: Affected/At Risk: 0/21
Genital infection fungal: Affected/At Risk (%): (0%)
Glaucoma: # Events: 0
Glaucoma: Affected/At Risk: 0/21
